From PubChem BioAssay (NCI)
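Briefly, cells in 96-well plates were exposed to five compound concentrations for 48 h, and endpoints were estimated by linear interpolation. TGI marks complete inhibition of growth.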

Experiments:
Assay in all cases: growth of human tumour cells (NCI), 48 h
786-0 renal = test system: 786-0 renal
A498 renal = test system: A498 renal
A549 NSCLC = test system: A549 NSCLC
ACHN renal = test system: ACHN renal
BT-549 breast = test system: BT-549 breast
CAKI-1 renal = test system: CAKI-1 renal
COLO 205 colon = test system: COLO 205 colon
DU-145 prostate = test system: DU-145 prostate
HCC-2998 colon = test system: HCC-2998 colon
HCT-116 colon = test system: HCT-116 colon
HCT-15 colon = test system: HCT-15 colon
HOP-92 NSCLC = test system: HOP-92 NSCLC
HS 578T breast = test system: HS 578T breast
HT29 colon = test system: HT29 colon
KM12 colon = test system: KM12 colon
LOX IMVI melanoma = test system: LOX IMVI melanoma
MALME-3M melanoma = test system: MALME-3M melanoma
MDA-MB-231 breast = test system: MDA-MB-231 breast
MDA-MB-435 = test system: MDA-MB-435
MDA-N = test system: MDA-N
NCI-H226 lung = test system: NCI-H226 lung
NCI-H23 lung = test system: NCI-H23 lung
NCI-H460 lung = test system: NCI-H460 lung
NCI-H522 lung = test system: NCI-H522 lung
NCI/ADR-RES ovarian = test system: NCI/ADR-RES ovarian
OVCAR-4 ovarian = test system: OVCAR-4 ovarian
OVCAR-8 ovarian = test system: OVCAR-8 ovarian
PC-3 prostate = test system: PC-3 prostate
RPMI-8226 leukemia = test system: RPMI-8226 leukemia
SF-268 CNS = test system: SF-268 CNS
SK-MEL-2 melanoma = test system: SK-MEL-2 melanoma
SK-MEL-28 melanoma = test system: SK-MEL-28 melanoma
SK-MEL-5 melanoma = test system: SK-MEL-5 melanoma
SN12C renal = test system: SN12C renal
SNB-19 CNS = test system: SNB-19 CNS
SW-620 colon = test system: SW-620 colon
T-47D breast = test system: T-47D breast
TK-10 renal = test system: TK-10 renal
U251 CNS = test system: U251 CNS
UACC-257 melanoma = test system: UACC-257 melanoma
UACC-62 melanoma = test system: UACC-62 melanoma
UO-31 renal = test system: UO-31 renal
CCRF-CEM leukemia = test system: CCRF-CEM leukemia
EKVX NSCLC = test system: EKVX NSCLC
HL-60(TB) leukemia = test system: HL-60(TB) leukemia
HOP-62 NSCLC = test system: HOP-62 NSCLC
IGROV1 ovarian = test system: IGROV1 ovarian
K-562 leukemia = test system: K-562 leukemia
M14 melanoma = test system: M14 melanoma
MCF7 breast = test system: MCF7 breast
MOLT-4 leukemia = test system: MOLT-4 leukemia
OVCAR-3 ovarian = test system: OVCAR-3 ovarian
OVCAR-5 ovarian = test system: OVCAR-5 ovarian
RXF 393 renal = test system: RXF 393 renal
SF-295 CNS = test system: SF-295 CNS
SF-539 CNS = test system: SF-539 CNS
SK-OV-3 ovarian = test system: SK-OV-3 ovarian
SNB-75 CNS = test system: SNB-75 CNS
SR leukemia = test system: SR leukemia

Measured: TGI

Cn1ccc(C(=O)NCCOCCNC(=O)c2ccn(C)c(=O)c2O)c(O)c1=O
not listed: CCRF-CEM leukemia | EKVX NSCLC | HL-60(TB) leukemia | HOP-62 NSCLC | IGROV1 ovarian | K-562 leukemia | M14 melanoma | MCF7 breast | MOLT-4 leukemia | OVCAR-3 ovarian | OVCAR-5 ovarian | RXF 393 renal | SF-295 CNS | SF-539 CNS | SK-OV-3 ovarian | SNB-75 CNS | SR leukemia
> 100 µM: all other assays above

CC1=C(C(N)=O)C(c2ccncc2)C(C#N)=C2SCC(=O)N12 (stereo not drawn)
not listed: HCC-2998 colon | LOX IMVI melanoma | TK-10 renal
> 100 µM: all other assays above
